Experimental data as given in PubChem BioAssay AID1918942 (Molecular Pharmacology Branch, DTP, NCI, 2023).
Values joined by “and” are separate entries in the source; they are usually repeats but may differ in a detail not shown here. Equal entries are not always repeated. Values belong to the molecule of their own block, whether it stands above or below them.

System: 743489-274-T-PDC complex spheroid viability
Assay: Anticancer human tumor 743489-274-T-PDC patient-derived renal cell carcinoma cell line growth inhibition
Conditions: for viability, T/C: stronger effect = lower value
Outline: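 Complex spheroids of tumor cells with HUVEC and human MSCs, exposed to iadademstat combined with other agents. Each agent tested in half-log steps from near clinical Cmax (else 10 microM top), DMSO ≤0.25%.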

[1] = curve of first compound, second compound 0.1 µM
[2] = curve of first compound, second compound 0.316 µM
[3] = curve of first compound, second compound 1 µM
[4] = curve of first compound, second compound 3.16 µM
[5] = curve of first compound, second compound 10 µM
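Note: spheroids exposed to compounds for 7 days before readout.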
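Throughout, for viability, T/C: 100% = DMSO vehicle control wells.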

IC50 (curve of compound): > 1 µM
Structure (SMILES): COc1cc(Nc2ncc3c(n2)-c2ccc(Cl)cc2C(c2c(F)cccc2OC)=NC3)ccc1C(=O)O
viability, T/C (compound 0.00316 µM): 102% and 91.3%
viability, T/C (compound 0.01 µM): 91.3% and 102%
viability, T/C (compound 0.0316 µM): 89.6% and 92%
viability, T/C (compound 0.1 µM): 92.6% and 90.8%
viability, T/C (compound 0.316 µM): 94.2% and 87.2%
viability, T/C (compound 1 µM): 91.7% and 67.7%

Structure (SMILES): CC1(C)CCC(CN2CCN(c3ccc(C(=O)NS(=O)(=O)c4ccc(NCC5CCOCC5)c([N+](=O)[O-])c4)c(Oc4cnc5[nH]ccc5c4)c3)CC2)=C(c2ccc(Cl)cc2)C1 + NC1CC1c1ccc(-c2cccc(O)c2)cc1
IC50 [1]: > 10 µM
IC50 [2]: > 10 µM
IC50 [3]: > 10 µM
IC50 [4]: > 10 µM
IC50 [5]: > 10 µM
viability, T/C (second compound 0.1 µM, first compound 0.0316 µM): 90.8%
viability, T/C (second compound 0.1 µM, first compound 0.1 µM): 119%
viability, T/C (second compound 0.1 µM, first compound 0.316 µM): 106%
viability, T/C (second compound 0.1 µM, first compound 1 µM): 110%
viability, T/C (second compound 0.1 µM, first compound 3.16 µM): 122%
viability, T/C (second compound 0.1 µM, first compound 10 µM): 117%
viability, T/C (second compound 0.316 µM, first compound 0.0316 µM): 107%
viability, T/C (second compound 0.316 µM, first compound 0.1 µM): 120%
viability, T/C (second compound 0.316 µM, first compound 0.316 µM): 112%
viability, T/C (second compound 0.316 µM, first compound 1 µM): 110%
viability, T/C (second compound 0.316 µM, first compound 3.16 µM): 119%
viability, T/C (second compound 0.316 µM, first compound 10 µM): 120%
viability, T/C (second compound 1 µM, first compound 0.0316 µM): 105%
viability, T/C (second compound 1 µM, first compound 0.1 µM): 102%
viability, T/C (second compound 1 µM, first compound 0.316 µM): 117%
viability, T/C (second compound 1 µM, first compound 1 µM): 130%
viability, T/C (second compound 1 µM, first compound 3.16 µM): 113%
viability, T/C (second compound 1 µM, first compound 10 µM): 107%
viability, T/C (second compound 3.16 µM, first compound 0.0316 µM): 103%
viability, T/C (second compound 3.16 µM, first compound 0.1 µM): 104%
viability, T/C (second compound 3.16 µM, first compound 0.316 µM): 111%
viability, T/C (second compound 3.16 µM, first compound 1 µM): 109%
viability, T/C (second compound 3.16 µM, first compound 3.16 µM): 121%
viability, T/C (second compound 3.16 µM, first compound 10 µM): 94.8%
viability, T/C (second compound 10 µM, first compound 0.0316 µM): 109%
viability, T/C (second compound 10 µM, first compound 0.1 µM): 103%
viability, T/C (second compound 10 µM, first compound 0.316 µM): 128%
viability, T/C (second compound 10 µM, first compound 1 µM): 111%
viability, T/C (second compound 10 µM, first compound 3.16 µM): 113%
viability, T/C (second compound 10 µM, first compound 10 µM): 95.3%

Structure (SMILES): COc1cc(C2c3cc4c(cc3C(OC3OC5COC(C)OC5C(O)C3O)C3COC(=O)C23)OCO4)cc(OC)c1O (configuration not stated) + NC1CC1c1ccc(-c2cccc(O)c2)cc1
IC50 [1]: > 3 µM
IC50 [2]: > 3 µM
IC50 [3]: > 3 µM
IC50 [4]: > 3 µM
IC50 [5]: > 3 µM
viability, T/C (second compound 0.1 µM, first compound 0.00949 µM): 107%
viability, T/C (second compound 0.1 µM, first compound 0.03 µM): 91.7%
viability, T/C (second compound 0.1 µM, first compound 0.0949 µM): 98%
viability, T/C (second compound 0.1 µM, first compound 0.3 µM): 88.7%
viability, T/C (second compound 0.1 µM, first compound 0.949 µM): 77.6%
viability, T/C (second compound 0.1 µM, first compound 3 µM): 76.9%
viability, T/C (second compound 0.316 µM, first compound 0.00949 µM): 103%
viability, T/C (second compound 0.316 µM, first compound 0.03 µM): 99.5%
viability, T/C (second compound 0.316 µM, first compound 0.0949 µM): 91.9%
viability, T/C (second compound 0.316 µM, first compound 0.3 µM): 76.7%
viability, T/C (second compound 0.316 µM, first compound 0.949 µM): 74.6%
viability, T/C (second compound 0.316 µM, first compound 3 µM): 79.7%
viability, T/C (second compound 1 µM, first compound 0.00949 µM): 92.8%
viability, T/C (second compound 1 µM, first compound 0.03 µM): 104%
viability, T/C (second compound 1 µM, first compound 0.0949 µM): 91.5%
viability, T/C (second compound 1 µM, first compound 0.3 µM): 92.2%
viability, T/C (second compound 1 µM, first compound 0.949 µM): 85.8%
viability, T/C (second compound 1 µM, first compound 3 µM): 76.5%
viability, T/C (second compound 3.16 µM, first compound 0.00949 µM): 87.9%
viability, T/C (second compound 3.16 µM, first compound 0.03 µM): 95.2%
viability, T/C (second compound 3.16 µM, first compound 0.0949 µM): 87.6%
viability, T/C (second compound 3.16 µM, first compound 0.3 µM): 87.5%
viability, T/C (second compound 3.16 µM, first compound 0.949 µM): 78.6%
viability, T/C (second compound 3.16 µM, first compound 3 µM): 79.3%
viability, T/C (second compound 10 µM, first compound 0.00949 µM): 97.2%
viability, T/C (second compound 10 µM, first compound 0.03 µM): 89.9%
viability, T/C (second compound 10 µM, first compound 0.0949 µM): 97%
viability, T/C (second compound 10 µM, first compound 0.3 µM): 83.9%
viability, T/C (second compound 10 µM, first compound 0.949 µM): 80.7%
viability, T/C (second compound 10 µM, first compound 3 µM): 70.4%
